Consider 20 molecules from ChEMBL document CHEMBL1136171, “Acetylenic TACE inhibitors. Part 1. SAR of the acyclic sulfonamide hydroxamates” (Bioorg Med Chem Lett, 2003).

The term pIC50 denotes the negative decadic logarithm of the IC50, by convention in mol/L. For orientation: bioavailability means dose-corrected exposure relative to a reference, in per cent. What is called ED50 is the midpoint of the dose-response relation. Broadly, the inhibition is the share of the control response that was lost under treatment. One may read the Inhibition as the percentage by which the read-out fell short of the control.

pIC50: −log10 of the molar value.

The first series addresses Collagenase 3 (Homo sapiens, UniProt P45452).
Details: not given
Turning to `CN(CC(=O)NO)S(=O)(=O)c1ccc(CCC#N)cc1`, the pIC50 is 6.68.

In the case of `CC#CCOc1ccc(S(=O)(=O)N[C@H](C)C(=O)NO)cc1`, the pIC50 was 6.71.

For the molecule `CC#CCOc1ccc(S(=O)(=O)N(C)C(CSCc2cccnc2)C(=O)NO)cc1` (stereo not given), the pIC50 is 8.30.

`CC#CCOc1ccc(S(=O)(=O)N(C)C(C(=O)NO)C(C)(C)SCc2cccnc2)cc1` (stereo not given) had a pIC50 of 8.70.

Turning to `CC#CCOc1ccc(S(=O)(=O)N[C@@H](C(=O)NO)C(C)C)cc1`, the pIC50 was 7.74.

`CC#CCOc1ccc(S(=O)(=O)N[C@@H](C(=O)NO)C(C)O)cc1` (stereo not given in full): the pIC50 is 7.07.

In turn, `CC#CCOc1ccc(S(=O)(=O)N(C)[C@@H](C(=O)NO)C(C)C)cc1` showed a pIC50 of 7.42.

Take `CC#CCOc1ccc(S(=O)(=O)NC(CSCc2cccnc2)C(=O)NO)cc1` (stereo not given): the pIC50 is 7.55.

`CC#CCOc1ccc(S(=O)(=O)NC(C(=O)NO)C(C)(C)SCc2cccnc2)cc1` (stereo not given): the pIC50 is 8.10.

The molecule `CC#CCOc1ccc(S(=O)(=O)N(C)[C@H](C)C(=O)NO)cc1` had a pIC50 of 7.55.

Another series concerns Mus musculus. Put plainly: Compound was reproducibly active at reducing clinical severity scores expressed as efficacy in mouse p.o.
Details: not given
The class given is functional.
In the case of `CC#CCOc1ccc(S(=O)(=O)N[C@@H](C(=O)NO)C(C)O)cc1` (stereo not given in full), the Activity came out at 20 mg/kg.

The target in the next series is T1, Interstitial collagenase (Homo sapiens, UniProt P03956).
T1 sequence (P03956 whole entry): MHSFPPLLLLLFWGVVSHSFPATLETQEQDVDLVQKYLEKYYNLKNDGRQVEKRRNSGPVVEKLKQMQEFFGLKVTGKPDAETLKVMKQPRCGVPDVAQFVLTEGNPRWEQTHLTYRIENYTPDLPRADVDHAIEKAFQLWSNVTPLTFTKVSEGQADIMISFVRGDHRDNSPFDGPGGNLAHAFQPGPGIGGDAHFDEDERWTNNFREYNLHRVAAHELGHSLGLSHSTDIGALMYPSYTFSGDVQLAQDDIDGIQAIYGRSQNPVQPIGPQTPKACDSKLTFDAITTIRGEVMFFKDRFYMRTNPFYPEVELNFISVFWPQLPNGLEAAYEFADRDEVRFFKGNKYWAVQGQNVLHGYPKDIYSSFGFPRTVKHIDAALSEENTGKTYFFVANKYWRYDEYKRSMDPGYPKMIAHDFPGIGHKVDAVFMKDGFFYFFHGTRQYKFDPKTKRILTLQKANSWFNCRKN
Put plainly: In vitro inhibition of Matrix metalloprotein 1.
Details: not given
Consider `CN(CC(=O)NO)S(=O)(=O)c1ccc(CCC#N)cc1`, for which the pIC50 is less than 5.00.

`CC#CCOc1ccc(S(=O)(=O)N[C@H](C)C(=O)NO)cc1` showed a pIC50 of 5.39.

On to `CC#CCOc1ccc(S(=O)(=O)N[C@@H](C(=O)NO)c2ccc(OCCNC)cc2)cc1`, for which the pIC50 is 5.00.

`C#CCNc1ccc(S(=O)(=O)N(C)CC(=O)NO)cc1` showed a pIC50 of roughly 5.00.

As to `CC#CCOc1ccc(S(=O)(=O)N[C@@H](C(=O)NO)C(C)C)cc1`, the pIC50 was 5.53.

The molecule `CC#CCOc1ccc(S(=O)(=O)N[C@@H](C(=O)NO)C(C)O)cc1` (stereo not given in full) showed a pIC50 of 5.61.

In turn, `CC#CCOc1ccc(S(=O)(=O)N(C)[C@@H](C(=O)NO)C(C)C)cc1` had a negative-log IC50 (pIC50) of 6.59.

Regarding `CC#CCOc1ccc(S(=O)(=O)NC(CSCc2cccnc2)C(=O)NO)cc1` (stereo not given), the pIC50 was 5.72.

For the molecule `CC#CCOc1ccc(S(=O)(=O)NC(C(=O)NO)C(C)(C)SCc2cccnc2)cc1` (stereo not given), the pIC50 is 6.32.

With `CC#CCOc1ccc(S(=O)(=O)N(C)[C@H](C)C(=O)NO)cc1`, the pIC50 was 6.48.

For another series, the target named is Matrix metalloproteinase-9 (Homo sapiens, UniProt P14780).
Sequence of Matrix metalloproteinase-9 (P14780 whole entry): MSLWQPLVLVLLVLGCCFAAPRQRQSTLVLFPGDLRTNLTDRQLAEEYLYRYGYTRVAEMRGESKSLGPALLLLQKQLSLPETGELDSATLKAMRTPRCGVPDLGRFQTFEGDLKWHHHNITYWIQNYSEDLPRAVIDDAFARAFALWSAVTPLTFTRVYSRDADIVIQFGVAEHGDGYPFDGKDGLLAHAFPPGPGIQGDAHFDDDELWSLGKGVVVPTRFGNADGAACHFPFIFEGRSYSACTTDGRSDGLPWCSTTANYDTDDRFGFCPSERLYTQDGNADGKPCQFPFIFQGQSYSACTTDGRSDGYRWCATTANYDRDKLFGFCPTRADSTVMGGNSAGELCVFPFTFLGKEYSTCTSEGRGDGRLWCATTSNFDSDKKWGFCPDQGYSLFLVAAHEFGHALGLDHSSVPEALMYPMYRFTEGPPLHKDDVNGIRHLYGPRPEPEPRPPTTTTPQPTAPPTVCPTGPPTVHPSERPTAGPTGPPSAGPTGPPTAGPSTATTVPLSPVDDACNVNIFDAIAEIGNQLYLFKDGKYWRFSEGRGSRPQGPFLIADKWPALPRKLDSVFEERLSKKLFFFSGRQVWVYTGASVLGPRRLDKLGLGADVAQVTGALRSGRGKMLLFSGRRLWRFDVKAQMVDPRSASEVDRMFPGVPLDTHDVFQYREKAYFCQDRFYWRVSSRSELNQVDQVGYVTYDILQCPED
Details: not given
The molecule `CN(CC(=O)NO)S(=O)(=O)c1ccc(CCC#N)cc1` gave a pIC50 of 7.13.

Turning to `CC#CCOc1ccc(S(=O)(=O)N[C@H](C)C(=O)NO)cc1`, the negative logarithm of the IC50 (pIC50) is 6.10.

With `CC#CCOc1ccc(S(=O)(=O)N(C)C(C(=O)NO)C(C)(C)SCc2cccnc2)cc1` (stereo not given), the pIC50 was 8.40.

For `CC#CCOc1ccc(S(=O)(=O)N[C@@H](C(=O)NO)C(C)C)cc1`, the pIC50 is 7.38.

`CC#CCOc1ccc(S(=O)(=O)N[C@@H](C(=O)NO)C(C)O)cc1` (stereo not given in full) had a negative-log IC50 (pIC50) of 6.11.

As to `CC#CCOc1ccc(S(=O)(=O)NC(CSCc2cccnc2)C(=O)NO)cc1` (stereo not given), the pIC50 was 6.80.

In the case of `CC#CCOc1ccc(S(=O)(=O)NC(C(=O)NO)C(C)(C)SCc2cccnc2)cc1` (stereo not given), the negative-log IC50 (pIC50) is 6.89.

`CC#CCOc1ccc(S(=O)(=O)N(C)[C@H](C)C(=O)NO)cc1` had a pIC50 of 7.17.

Test system in the next series: not listed separately
Put plainly: Oral bioavailability in dog at 10 mg/kg of the compound. Type of series: ADME, organism-based, Canis lupus familiaris. The note with it: in vivo.
Regarding `CC#CCOc1ccc(S(=O)(=O)N[C@@H](C(=O)NO)C(C)O)cc1` (stereo not given in full), the bioavailability was found to be 75%.

The next series is filed under the species Mus musculus. Description: Effective dose in mouse. Type of series: functional.
Details: not given
Consider `CC#CCOc1ccc(S(=O)(=O)N[C@@H](C(=O)NO)C(C)O)cc1` (stereo not given in full), for which the ED50 came out at 3 mg/kg.

In a further series the target is T2, Interstitial collagenase (Homo sapiens) (UniProt P03956).
T2 sequence (whole entry): T1 sequence (P03956 whole entry)
Put plainly: Inhibition of Matrix metalloprotein 1 at 10 uM.
Details: not given
Take `CC#CCOc1ccc(S(=O)(=O)NCC(=O)NO)cc1`: the inhibition was 47%.

The subject of another series is Mus musculus. Put plainly: Compound was reproducibly active at reducing clinical severity scores in mouse p.o. The class given is functional.
Details: not given
For the molecule `CC#CCOc1ccc(S(=O)(=O)N[C@@H](C(=O)NO)C(C)O)cc1` (stereo not given in full), the Activity amounted to 10 mg/kg.

The target in the next series is T3, Disintegrin and metalloproteinase domain-containing protein 17 (Homo sapiens, UniProt P78536). Put plainly: In vitro inhibition of tumor necrosis factor-alpha converting enzyme.
T3 sequence (P78536 whole entry, the tested form may be a part): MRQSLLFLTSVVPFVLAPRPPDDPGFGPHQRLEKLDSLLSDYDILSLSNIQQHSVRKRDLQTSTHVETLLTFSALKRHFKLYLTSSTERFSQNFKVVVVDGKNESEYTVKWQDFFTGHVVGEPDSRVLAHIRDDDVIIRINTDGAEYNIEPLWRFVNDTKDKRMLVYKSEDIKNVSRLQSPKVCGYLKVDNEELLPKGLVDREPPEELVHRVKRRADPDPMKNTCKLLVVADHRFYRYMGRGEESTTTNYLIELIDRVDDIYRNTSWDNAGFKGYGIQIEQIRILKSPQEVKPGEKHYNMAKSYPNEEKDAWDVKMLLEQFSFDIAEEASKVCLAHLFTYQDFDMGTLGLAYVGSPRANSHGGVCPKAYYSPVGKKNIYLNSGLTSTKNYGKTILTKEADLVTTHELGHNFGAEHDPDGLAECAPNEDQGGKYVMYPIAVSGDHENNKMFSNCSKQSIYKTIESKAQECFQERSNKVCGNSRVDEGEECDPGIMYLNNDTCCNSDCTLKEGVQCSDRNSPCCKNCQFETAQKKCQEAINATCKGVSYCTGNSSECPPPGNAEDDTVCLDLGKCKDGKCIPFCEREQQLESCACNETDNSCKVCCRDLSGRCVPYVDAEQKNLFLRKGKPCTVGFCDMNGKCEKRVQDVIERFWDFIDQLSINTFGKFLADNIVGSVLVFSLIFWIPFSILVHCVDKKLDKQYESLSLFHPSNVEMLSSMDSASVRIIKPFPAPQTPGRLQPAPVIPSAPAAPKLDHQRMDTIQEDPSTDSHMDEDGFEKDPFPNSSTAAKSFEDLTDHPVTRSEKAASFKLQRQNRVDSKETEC
Details: not given
`CC#CCOc1ccc(S(=O)(=O)N[C@H](C)C(=O)NO)cc1`: the pIC50 is 8.40.

Molecule `CC#CCOc1ccc(S(=O)(=O)N(C)C(C(=O)NO)C(C)(C)SCc2cccnc2)cc1` (stereo not given) gave a pIC50 of 7.27.

Turning to `CC#CCOc1ccc(S(=O)(=O)N(C)CC(=O)NO)cc1`, the pIC50 is 8.15.

In the case of `CC#CCOc1ccc(S(=O)(=O)N[C@@H](C(=O)NO)C(C)C)cc1`, the pIC50 was 8.00.

In turn, `CC#CCOc1ccc(S(=O)(=O)N[C@@H](C(=O)NO)C(C)O)cc1` (stereo not given in full) gave a pIC50 of 8.00.

`CC#CCOc1ccc(S(=O)(=O)N(C)[C@@H](C(=O)NO)C(C)C)cc1` had a negative logarithm of the IC50 (pIC50) of 7.82.

Molecule `CC#CCOc1ccc(S(=O)(=O)NC(CSCc2cccnc2)C(=O)NO)cc1` (stereo not given) had a pIC50 of 8.52.

The molecule `CC#CCOc1ccc(S(=O)(=O)NC(C(=O)NO)C(C)(C)SCc2cccnc2)cc1` (stereo not given) showed a pIC50 of 8.22.

Turning to `CC#CCOc1ccc(S(=O)(=O)N(C)[C@H](C)C(=O)NO)cc1`, the negative-log IC50 (pIC50) is 8.30.

Take `CC#CCOc1ccc(S(=O)(=O)NCC(=O)NO)cc1`: the pIC50 was 8.30.

Test system in a further series: not listed separately
Put plainly: Oral bioavailability in mouse at 10 mg/kg of the compound. Type of series: ADME, organism-based. Particulars: in vivo.
`CC#CCOc1ccc(S(=O)(=O)N[C@@H](C(=O)NO)C(C)O)cc1` (stereo not given in full) registered a bioavailability of 100%.

The next series relates to Mus musculus. Put plainly: In vivo percent inhibition against LPS-stimulated production of TNF-alpha in a mouse at a dose of 50 mg/Kg p.o. The class given is functional. Particulars: po, read-out: Inhibition.
Consider `CC#CCOc1ccc(S(=O)(=O)N[C@H](C)C(=O)NO)cc1`, for which the inhibition in vivo at 50 mg/kg was greater than 75%.

For `CC#CCOc1ccc(S(=O)(=O)N[C@@H](C(=O)NO)C(C)(C)C)cc1`, the inhibition in vivo at 50 mg/kg is greater than 75%.

For `CC#CCOc1ccc(S(=O)(=O)N(C)[C@@H](C(=O)NO)c2ccc(OCCNC)cc2)cc1`, the inhibition in vivo at 50 mg/kg was greater than 75%.

In the next series the target is T3, Disintegrin and metalloproteinase domain-containing protein 17. Put plainly: Inhibition of tumor necrosis factor-alpha converting enzyme. The note with it: concentration not given here.
`CN(CC(=O)NO)S(=O)(=O)c1ccc(CCC#N)cc1` registered an inhibition of 6%.

Test system in a further series: not listed separately
Description: Oral bioavailability in rat at 10 mg/kg of the compound. Type of series: ADME, organism-based. The note with it: in vivo.
With `CC#CCOc1ccc(S(=O)(=O)N[C@@H](C(=O)NO)C(C)O)cc1` (stereo not given in full), the bioavailability stood at 46%.

The next series has as its system THP-1. Put plainly: Inhibition of LPS-stimulated production of TNF-alpha at the dose of 3 uM concentration. The class given is functional. The note with it: Homo sapiens.
`CN(CC(=O)NO)S(=O)(=O)c1ccc(CCC#N)cc1`: the inhibition at 3 µM amounted to 7%.

The molecule `CC#CCOc1ccc(S(=O)(=O)NCCC(=O)NO)cc1` showed an inhibition at 3 µM of 0%.

For the molecule `CC#CCOc1ccc(S(=O)(=O)N(C)CCC(=O)NO)cc1`, 3 µM produced 9% inhibition.

Test system in the next series: not listed separately
Put plainly: Oral bioavailability in monkey at 10 mg/kg of the compound. The class given is ADME, organism-based. Particulars: cercopithecidae, in vivo.
Molecule `CC#CCOc1ccc(S(=O)(=O)N[C@@H](C(=O)NO)C(C)O)cc1` (stereo not given in full) showed a bioavailability of 17%.

In another series the test system is THP-1. Put plainly: Inhibition of LPS-stimulated production of TNF-alpha, at the dose of 1 uM concentration. The class given is functional.
Details: not given
`CC#CCOc1ccc(S(=O)(=O)N(C)[C@H](C)C(=O)NO)cc1` displayed an Inhibition of 60%.

Staying with this series, now noted: Homo sapiens, THP-1.
Turning to `CC#CCOc1ccc(S(=O)(=O)NC(C)(C)C(=O)NO)cc1`, at 1 µM the inhibition was 9%.

Turning to `CC#CCOc1ccc(S(=O)(=O)N[C@H](C)C(=O)NO)cc1`, at 1 µM the inhibition was 40%.

Turning to `CC#CCOc1ccc(S(=O)(=O)N[C@@H](C(=O)NO)c2ccc(OCCNC)cc2)cc1`, the inhibition at 1 µM is 48%.

`CC#CCOc1ccc(S(=O)(=O)N(C)C(CSCc2cccnc2)C(=O)NO)cc1` (stereo not given) came in with an inhibition at 1 µM of 80%.

On to `CC#CCOc1ccc(S(=O)(=O)N(C)C(C(=O)NO)C(C)(C)SCc2cccnc2)cc1` (stereo not given), for which the inhibition at 1 µM was 52%.

Turning to `CC#CCOc1ccc(S(=O)(=O)N(C)CC(=O)NO)cc1`, the inhibition at 1 µM is 22%.

Take `CC#CCOc1ccc(S(=O)(=O)N[C@@H](C(=O)NO)C(C)(C)C)cc1`: the inhibition at 1 µM is 78%.

On to `CC#CCOc1ccc(S(=O)(=O)N[C@@H](C(=O)NO)C(C)C)cc1`, for which at 1 µM the inhibition was 58%.

`CC#CCOc1ccc(S(=O)(=O)N(CC(=O)NO)Cc2cccnc2)cc1` had an inhibition at 1 µM of 45%.

Molecule `CC#CCOc1ccc(S(=O)(=O)N[C@@H](C(=O)NO)C(C)O)cc1` (stereo not given in full) returned an inhibition at 1 µM of 50%.

With `CC#CCOc1ccc(S(=O)(=O)N(C)[C@@H](C(=O)NO)C(C)C)cc1`, at 1 µM the inhibition was 79%.

`CC#CCOc1ccc(S(=O)(=O)NC(CSCc2cccnc2)C(=O)NO)cc1` (stereo not given) registered an inhibition at 1 µM of 56%.

In turn, `CC#CCOc1ccc(S(=O)(=O)NC(C(=O)NO)C(C)(C)SCc2cccnc2)cc1` (stereo not given) displayed an inhibition at 1 µM of 49%.

As to `CC#CCOc1ccc(S(=O)(=O)N(C)[C@@H](C(=O)NO)c2ccc(OCCNC)cc2)cc1`, the inhibition at 1 µM is 87%.

In turn, `CC#CCOc1ccc(S(=O)(=O)NCC(=O)NO)cc1` returned an inhibition at 1 µM of 15%.

The species named for the next series is Homo sapiens. Put plainly: Inhibitory concentration against LPS-stimulated TNF-alpha production in human whole blood. The class given is functional.
Details: not given
As to `CC#CCOc1ccc(S(=O)(=O)N[C@@H](C(=O)NO)C(C)O)cc1` (stereo not given in full), the negative logarithm of the IC50 (pIC50) was 6.00.
